Data reported in US11547681B2, “N-acylethanolamide derivatives and uses thereof” (ELIEM THERAPEUTICS, INC., priority 2016, dated 2023).

Experiment: Liver microsomal stability, human
Conditions: for microsomal CLint / half-life / half-life at 1 μM: microsomes
Description: The reaction mixture, minus cofactors, was prepared as described below. The test article was added into the reaction mixture at a final concentration of 1 μM. […] An aliquot of the reaction mixture (without cofactor) was equilibrated in a shaking water bath at 37° C. for 3 minutes. The reaction was initiated by the addition of cofactor, and the mixture was incubated in a shaking water bath at 37° C. Aliquots (100 μL) were withdrawn at 0, 10, 20, 30, and 60 minutes. All samples were immediately combined with 400 μL of ice-cold 50/50 acetonitrile/H2O containing 0.1% formic acid and internal standard to terminate the reaction. The samples were then mixed and centrifuged to precipitate proteins. Calibration standards were prepared in matched matrix. All samples and standards were assayed by LC-MS/MS using electrospray ionization for both the dosed prodrug I-9 and the expected drug (PEA). Analytical conditions are outlined in Appendix 4-1. The test article concentration at each time point was compared to the test article concentration at time 0 to determine the percent remaining at each time point. Half-lives were calculated using GraphPad software, fitting to a single-phase exponential decay equation.
Reaction mixture, minus cofactors, was prepared as described below. Test article was added into the reaction mixture at a final concentration of 1 μM. […] An aliquot of the reaction mixture (without cofactor) was equilibrated in a shaking water bath at 37° C. for 3 minutes. The reaction was initiated by the addition of cofactor, and the mixture was incubated in a shaking water bath at 37° C. Aliquots (100 μL) were withdrawn at 0, 10, 20, 30, and 60 minutes. Test article samples were immediately combined with 300 μL of ice-cold acetonitrile containing 1% formic acid. Control samples were immediately combined with 400 μL of ice-cold 50/50 acetonitrile (ACN)/dH2O containing 0.1% formic acid and internal standard to terminate the reaction. Samples were then mixed and centrifuged to precipitate proteins. Calibration standards were prepared in matched matrix. Samples and standards were assayed by LC-MS/MS using electrospray ionization for both dosed prodrug and expected drug (PEA). Analytical conditions are outlined in Appendix 8-1. Test article concentration at each time point was compared to test article concentration at time 0 to determine the percent remaining at each time point. Half-lives were calculated using GraphPad software, fitting to a single-phase exponential decay equation.
Reaction mixture, minus cofactors, was prepared as described below. Test article was added into the reaction mixture at a final concentration of 1 μM. […] An aliquot of the reaction mixture (without cofactor) was equilibrated in a shaking water bath at 37° C. for 5 minutes. Reaction was initiated by the addition of cofactor, and the mixture was incubated in a shaking water bath at 37° C. Aliquots (100 μL) were withdrawn at 0, 10, 20, 30, and 60 minutes. Test article samples were immediately combined with 300 μL of ice-cold acetonitrile containing 1% formic acid. Control samples were immediately combined with 400 μL of ice-cold 50/50 acetonitrile (ACN)/dH2O containing 0.1% formic acid and internal standard to terminate the reaction. Samples were then mixed and centrifuged to precipitate proteins. Calibration standards were prepared in matched matrix. Samples and standards were assayed by LC-MS/MS using electrospray ionization for both the dosed prodrug and the expected drug (PEA). Analytical conditions are outlined in Appendix 10-1. Test article concentration at each time point was compared to the test article concentration at time 0 to determine the percent remaining at each time point. Half-lives were calculated using GraphPad software, fitting to a single-phase exponential decay equation.
Reaction mixture, minus cofactors, was prepared as described below. Test article was added into the reaction mixture at a final concentration of 1 μM.

C[C@]12CC[C@H]3[C@@H](CCC4=CC(=O)CC[C@@]43C)[C@@H]1CC[C@@H]2O [Testosterone, testosterone, reference compound]
Clint, control compound (Example 4 control run): 0.0792 ml/min/mg protein | Half-life, control compound (Example 4 control run): 17 min | microsomal CLint (both, human, CLint, Control Compound, Human liver microsomes): 66.7 µL/min/mg | microsomal CLint (both, human, CLint, Control compound, Human liver microsomes): 50.5 µL/min/mg | microsomal CLint (both, human, CLint, Human liver microsomes, control compound): 66.7 µL/min/mg | microsomal CLint (both, human, CLint, control compound, human liver microsomes): 151 µL/min/mg | half-life (both, human, Control Compound, Human liver microsomes): 21 min | half-life (both, human, Control compound, Human liver microsomes): 27 min | half-life at 1 μM (both, human, Human liver microsomes): 21 min | microsomal CLint (male, Sprague-Dawley, CLint, Control Compound, Rat liver microsomes): 1010 µL/min/mg | microsomal CLint (male, Sprague-Dawley, CLint, Control compound, Rat liver microsomes): 760 µL/min/mg | microsomal CLint (male, Sprague-Dawley, CLint, Rat liver microsomes, control compound): 1010 µL/min/mg | microsomal CLint (male, Sprague-Dawley, CLint, control compound, rat liver microsomes): 911 µL/min/mg | microsomal CLint (male, Sprague-Dawley, Clint, control compound, Example 4 control run): 1030 µL/min/mg | half-life (male, Sprague-Dawley, Control Compound, Rat liver microsomes): 1.4 min | half-life (male, Sprague-Dawley, Control compound, Rat liver microsomes): 1.8 min | half-life at 1 μM (male, Sprague-Dawley, Rat liver microsomes): 1.4 min | half-life (male, Sprague-Dawley, control compound, Example 4 control run): 1.4 min | half-life (male, Sprague-Dawley, control compound, rat liver microsomes): 1.5 min
